# Results as given in PMC7616174, “Development of Novel 4-Arylpyridin-2-one and 6-Arylpyrimidin-4-one Positive Allosteric Modulators of the M1 Muscarinic Acetylcholine Receptor” (ChemMedChem, 2020).
# Where two headings read alike, the source gives them in different places.
# Experiments:
# hM1 mAChR [1] = biological target: T1, hM1 mAChR (Homo sapiens, UniProt P11229); test: IP1 accumulation assay (ACh concentration-response curves in absence or presence of modulator); type: cell-based; conditions: for αβ (functional cooperativity with ACh) / τB (intrinsic efficacy of the modulator) / log τB (logarithm of intrinsic efficacy of the modulator) / log αβ (logarithm of functional cooperativity between ACh and modulator): IP1 accumulation; for αβ (functional cooperativity with ACh) / τB (intrinsic efficacy of the modulator): antilog, in parentheses; for log τB (logarithm of intrinsic efficacy of the modulator) / log αβ (logarithm of functional cooperativity between ACh and modulator): operational model; for log αβ (logarithm of functional cooperativity between ACh and modulator): pKB constrained to binding value; for activation at 1 µM: read-out: Δbaseline [1 μM]: change in basal response in presence of M1 PAM compared to control curve; for activation at 10 µM: read-out: Δbaseline [10 μM]: change in basal response in presence of M1 PAM compared to control curve
# T1 construct: expressed in transfected cells
# T1 sequence (P11229 1-460): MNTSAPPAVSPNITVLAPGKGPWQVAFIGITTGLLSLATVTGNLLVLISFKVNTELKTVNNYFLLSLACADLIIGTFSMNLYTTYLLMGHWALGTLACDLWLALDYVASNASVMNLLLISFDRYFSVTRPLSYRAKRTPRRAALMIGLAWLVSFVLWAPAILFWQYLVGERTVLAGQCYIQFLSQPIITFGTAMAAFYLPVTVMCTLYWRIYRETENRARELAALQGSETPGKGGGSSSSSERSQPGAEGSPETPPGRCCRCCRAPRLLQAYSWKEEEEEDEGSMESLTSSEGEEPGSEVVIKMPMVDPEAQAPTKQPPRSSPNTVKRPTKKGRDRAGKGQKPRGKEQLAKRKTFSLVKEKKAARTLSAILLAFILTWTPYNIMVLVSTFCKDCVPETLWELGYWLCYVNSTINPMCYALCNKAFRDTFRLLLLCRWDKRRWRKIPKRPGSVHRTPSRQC
# hM1 mAChR [2] = biological target: T1, hM1 mAChR; test: Whole-cell [3H]NMS equilibrium competition radioligand binding; conditions: [3H]NMS binding; for α (binding cooperativity with ACh): antilog
# Procedure: To determine the affinity (pKB) of the allosteric modulators for the allosteric site, and their binding cooperativity with ACh (log αACh) at the M1 mAChR, whole cell equilibrium competition binding studies were performed, using [^3H]NMS to label the orthosteric site.
# FlpIn Chinese hamster ovary (CHO) cells stably expressing the hM1 mAChR were grown in Dulbecco’s modified Eagle’s medium (DMEM) (Invitrogen, Carlsbad, CA) supplemented with 5% foetal bovine serum (FBS) (Thermo-Trace, Melbourne, Australia) and 300 μg/mL G418 (Invitrogen, Carlsbad, CA). The cells were plated at 50,000 cells per well of 96-well white clear bottom plates (Greiner Bio-one, Kremsmünster, Austria), and were grown overnight. The following day, cells were washed twice with Phosphate Buffered Saline (PBS), and incubated with increasing concentrations of ACh (Sigma) in the absence or presence of increasing concentrations of each modulator and 0.2 nM [^3H]NMS (PerkinElmer Life Sciences) in binding buffer (20 mM HEPES, 100 mM NaCl, 10 mM MgCl2, pH 7.4) for 5 h at room temperature. Nonspecific binding was determined using atropine at the final concentration of 10 μM. The assays were terminated by rapid removal of the unbound radioligand followed by two washes with 100 μL/well ice-cold 0.9% NaCl buffer. Radioactivity was determined by addition of 100 μL/well Ultima gold (PerkinElmer Life Sciences) and counting in a MicroBeta plate reader (PerkinElmer Life Sciences).
# Binding interaction studies with allosteric ligands were fitted to the following allosteric ternary complex model [Eq. (2)][15] Y=Bmax|A|/[Λ]+[KAKB/α^′[B]+KB][1+[I]/K1+[B]/KB+α[I][B]/KIKB] where Bmax is the total number of receptors, [A], [B] and [I] denote the concentrations of radioligand, allosteric modulator, and orthosteric ligand, respectively; KA, KB and KI are their respective equilibrium dissociation constants. α’ and α are the affinity cooperativity factors between the allosteric ligand and radioligand or the allosteric modulator and ACh, respectively. Values of α or α’ > 1 denote positive cooperativity, values < 1 but > 0 denote negative cooperativity, and a value of 1 indicates neutral coopera-tivity.
# [3] = 1 μM modulator, FlpIn CHO hM1 cells, mean ± SEM, 3 experiments
# [4] = 10 μM modulator, FlpIn CHO hM1 cells, mean ± SEM, 3 experiments
# [5] = allosteric ternary complex model, mean ± SEM, read-out: pKB (negative logarithm of the allosteric modulator equilibrium dissociation constant) (converted)
Structure (SMILES),ΔpEC50 [1 μM]: change in ACh pEC50 in presence of M1 PAM compared to control curve (hM1 mAChR [1]; [3]),ΔpEC50 [10 μM]: change in ACh pEC50 in presence of M1 PAM compared to control curve (hM1 mAChR [1]; [4]),αβ (functional cooperativity with ACh) (hM1 mAChR [1]),τB (intrinsic efficacy of the modulator) (hM1 mAChR [1]),log τB (logarithm of intrinsic efficacy of the modulator) (hM1 mAChR [1]),log αβ (logarithm of functional cooperativity between ACh and modulator) (hM1 mAChR [1]),activation at 1 µM (hM1 mAChR [1]) [%],activation at 10 µM (hM1 mAChR [1]) [%],"Kb (hM1 mAChR [2]; KB, antilog of pKB, in parentheses) [µM]",α (binding cooperativity with ACh) (hM1 mAChR [2]; in parentheses),log αACh (logarithm of binding cooperativity between ACh and modulator) (hM1 mAChR [2]; mean ± SEM),"Kb (hM1 mAChR [2]; pKB (negative logarithm of the allosteric modulator equilibrium dissociation constant), allosteric ternary complex model, mean ± SEM) [µM]",activation at 1 µM (hM1 mAChR [1]; [3]) [%],activation at 10 µM (hM1 mAChR [1]; [4]) [%],Kb (hM1 mAChR [2]; [5]) [µM]
"Cn1cc(-c2ccc(COc3ccccc3-c3cc(=O)n(C4CCCCC4O)cn3)cc2)cn1 (stereo not shown) [Compound 2, 3-(2-Hydroxycyclohexyl)-6-(2-((4-(1-methyl-1H-pyrazol-4-yl)benzyl)oxy)phenyl)pyrimidin-4(3H)-one]",1.52±0.14,1.28±0.42,363,6,0.78±0.02,2.56±0.07,55.1 ± 2.4,85.3 ± 2.4,3,240,2.38±0.13,3.16,,,
"Cn1cc(-c2ccc(COc3ncccc3-c3ccn(C4CCCCC4O)c(=O)c3)cc2)cn1 (stereo not shown) [Compound 7f, 1’-(2-Hydroxycyclohexyl)-2-((4-(1-methyl-1H-pyrazol-4-yl)benzyl)oxy)-[3,4’-bipyridin]-2’(1’H)-one]",0.76±0.07,1.41±0.10,316,4,0.56±0.05,2.50±0.08,,,,240,2.38±0.39,,4.8 ± 1.9,20.5 ± 2.5,38
"CN(C)C(=O)Cn1ccc(-c2ccccc2OCc2ccc(-c3cnn(C)c3)cc2)cc1=O [Compound 13c, N,N-Dimethyl-2-(4-(2-((4-(1-methyl-1H-pyrazol-4-yl)benzyl)oxy)phenyl)-2-oxopyridin-1(2H)-yl)acetamide]",0.73±0.08,1.33±0.17,118,3,0.45±0.03,2.07±0.08,,,,72,1.86±0.28,,2.1 ± 2.1,63.6 ± 2.3,16.6
